According to patent US12252524B2, “GIP/GLP1 co-agonist compounds” (Eli Lilly and Company, priority 2018, dated 2025):
Numbered stars: 1 amine (or outer) side, 2 acyl side, 3 side chain; on linkers, the order of the positions; unused ones are H or OH. Square brackets hold non-standard residues; d marks the D form. Side chains are listed from the residue outwards. Peptide text beside a SMILES is read from it. * marks the point of attachment. C20 diacid = O=C(O)CCCCCCCCCCCCCCCCCCC(=O)*; C18 diacid = O=C(O)CCCCCCCCCCCCCCCCC(=O)*; αMePhe(2-F) = C[C@](N)(Cc1ccccc1F)C(=O)O; γGlu = O=C(O)[C@H](CCC(=O)[*:2])N[*:1]; 3Pal = N[C@@H](Cc1cccnc1)C(=O)O; αMeL = CC(C)C[C@](C)(N)C(=O)O; AEEA = NCCOCCOCC(=O)O; Aib = CC(C)(N)C(=O)O

Legend:
[1] = target: human GLP-1 receptor (GLP-1R) (Homo sapiens, UniProt P43220); assay: cAMP pharmacological functional assay in presence of casein, hGLP-1R; type: cell-based; details: HEK293 cells expressing hGLP-1R, 0.1% Casein, geometric mean; read-out: hGLP1R cAMP Rel EC50 nM (SEM, n)
Sequence of human GLP-1 receptor (GLP-1R) (P43220 24-463): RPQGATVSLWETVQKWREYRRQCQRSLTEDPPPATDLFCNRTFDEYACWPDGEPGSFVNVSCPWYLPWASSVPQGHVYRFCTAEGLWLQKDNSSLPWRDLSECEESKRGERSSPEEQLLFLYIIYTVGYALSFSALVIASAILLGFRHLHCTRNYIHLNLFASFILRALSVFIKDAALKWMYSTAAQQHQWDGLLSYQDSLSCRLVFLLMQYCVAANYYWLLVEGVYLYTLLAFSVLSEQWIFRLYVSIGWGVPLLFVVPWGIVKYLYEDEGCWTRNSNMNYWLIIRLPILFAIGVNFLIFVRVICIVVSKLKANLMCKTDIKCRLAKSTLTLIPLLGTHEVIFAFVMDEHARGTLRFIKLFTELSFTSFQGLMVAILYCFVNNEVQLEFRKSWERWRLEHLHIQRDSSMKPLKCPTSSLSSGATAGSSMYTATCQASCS

[2] = target: T1, gastric inhibitory peptide receptor (GIPR) (Homo sapiens, UniProt P48546); assay: cAMP pharmacological functional assay in presence of casein, hGIPR; type: cell-based; details: HEK293 cells expressing hGIPR, 0.1% Casein, geometric mean; read-out: hGIPR cAMP Rel EC50 nM (SEM, n)
T1 sequence (P48546 22-466): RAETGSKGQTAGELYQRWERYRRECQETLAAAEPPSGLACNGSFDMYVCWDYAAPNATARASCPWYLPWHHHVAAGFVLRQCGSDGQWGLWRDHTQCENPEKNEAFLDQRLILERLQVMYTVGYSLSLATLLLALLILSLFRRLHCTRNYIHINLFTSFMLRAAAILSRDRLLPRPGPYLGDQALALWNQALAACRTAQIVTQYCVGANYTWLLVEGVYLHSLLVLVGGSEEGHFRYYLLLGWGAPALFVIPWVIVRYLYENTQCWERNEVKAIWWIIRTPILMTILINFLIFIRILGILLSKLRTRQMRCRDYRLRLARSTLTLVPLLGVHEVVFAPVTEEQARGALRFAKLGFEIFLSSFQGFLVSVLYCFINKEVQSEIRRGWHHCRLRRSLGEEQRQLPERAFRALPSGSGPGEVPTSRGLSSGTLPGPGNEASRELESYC

Row | Compound | EC50 [1] [nM] | EC50 [2] [nM]
1 | CC[C@H](C)[C@H](NC(=O)[C@H](CC(C)C)NC(=O)[C@H](Cc1ccc(O)cc1)NC(=O)[C@@H](CCC(=O)O)NC(=O)[C@@H](NC(=O)[C@H](Cc1ccccc1)NC(=O)[C@@H](NC(=O)C(C)(C)NC(=O)[C@H](CCC(N)=O)NC(=O)[C@H](C)NC(=O)[C@H](CCCCNC(=O)COCCOCCNC(=O)COCCOCCNC(=O)[C@@H](N)CCCCNC(=O)CCCCCCCCCCCCCCCCCCC(=O)O)NC(=O)[C@H](CCC(=O)O)NC(=O)[C@H](CC(=O)O)NC(=O)[C@H](CC(C)C)NC(=O)C(C)(CC(C)C)NC(=O)[C@@H](NC(=O)[C@H](CO)NC(=O)[C@H](Cc1c[nH]cn1)NC(=O)[C@H](CC(=O)O)NC(=O)[C@H](CO)NC(=O)[C@@H](NC(=O)C(C)(Cc1ccccc1F)NC(=O)[C@@H](NC(=O)CNC(=O)[C@H](CCC(=O)O)NC(=O)C(C)(C)NC(=O)[C@@H](N)Cc1ccc(O)cc1)[C@@H](C)O)[C@@H](C)O)[C@@H](C)CC)[C@@H](C)O)[C@@H](C)CC)C(=O)N[C@@H](CCC(=O)O)C(=O)NCC(=O)NCC(=O)N1CCC[C@H]1C(=O)N[C@@H](CO)C(=O)N[C@@H](CO)C(=O)NCC(=O)N[C@@H](C)C(=O)N1CCC[C@H]1C(=O)N1CCC[C@H]1C(=O)N1CCC[C@H]1C(=O)N[C@@H](CO)C(N)=O (stereo partly shown) [Example 175] | 1.11 | 0.0881
2 | CC[C@H](C)[C@H](NC(=O)[C@H](CC(C)C)NC(=O)[C@H](Cc1ccc(O)cc1)NC(=O)[C@@H](CCC(=O)O)NC(=O)[C@@H](NC(=O)[C@H](Cc1ccccc1)NC(=O)[C@@H](NC(=O)C(C)(C)NC(=O)[C@H](CCC(N)=O)NC(=O)[C@H](C)NC(=O)[C@H](CCCCNC(=O)COCCOCCNC(=O)COCCOCCNC(=O)[C@@H](N)CCCCNC(=O)CCCCCCCCCCCCCCCCC(=O)O)NC(=O)[C@H](CCC(=O)O)NC(=O)[C@H](CC(=O)O)NC(=O)[C@H](CC(C)C)NC(=O)C(C)(CC(C)C)NC(=O)[C@@H](NC(=O)[C@H](CO)NC(=O)[C@H](Cc1c[nH]cn1)NC(=O)[C@H](CC(=O)O)NC(=O)[C@H](CO)NC(=O)[C@@H](NC(=O)C(C)(Cc1ccccc1F)NC(=O)[C@@H](NC(=O)CNC(=O)[C@H](CCC(=O)O)NC(=O)C(C)(C)NC(=O)[C@@H](N)Cc1ccc(O)cc1)[C@@H](C)O)[C@@H](C)O)[C@@H](C)CC)[C@@H](C)O)[C@@H](C)CC)C(=O)N[C@@H](CCC(=O)O)C(=O)NCC(=O)NCC(=O)N1CCC[C@H]1C(=O)N[C@@H](CO)C(=O)N[C@@H](CO)C(=O)NCC(=O)N[C@@H](C)C(=O)N1CCC[C@H]1C(=O)N1CCC[C@H]1C(=O)N1CCC[C@H]1C(=O)N[C@@H](CO)C(N)=O (stereo partly shown) [Example 176] | 1.07 | 0.523
3 | CC[C@H](C)[C@H](NC(=O)[C@H](CC(C)C)NC(=O)[C@H](Cc1ccc(O)cc1)NC(=O)[C@@H](CCC(=O)O)NC(=O)[C@@H](NC(=O)[C@H](Cc1ccccc1)NC(=O)[C@H](Cc1c[nH]cn1)NC(=O)C(C)(C)NC(=O)[C@H](CCC(N)=O)NC(=O)[C@H](C)NC(=O)[C@H](CCCCNC(=O)COCCOCCNC(=O)COCCOCCNC(=O)CC[C@H](NC(=O)CCCCCCCCCCCCCCCCC(=O)O)C(=O)O)NC(=O)[C@H](CCC(=O)O)NC(=O)[C@H](CC(=O)O)NC(=O)[C@H](CC(C)C)NC(=O)[C@](C)(CC(C)C)NC(=O)[C@@H](NC(=O)[C@H](CO)NC(=O)[C@H](Cc1c[nH]cn1)NC(=O)[C@H](CC(=O)O)NC(=O)[C@H](CO)NC(=O)[C@@H](NC(=O)[C@](C)(Cc1ccccc1F)NC(=O)[C@@H](NC(=O)CNC(=O)[C@H](CCC(=O)O)NC(=O)C(C)(C)NC(=O)[C@@H](N)Cc1ccc(O)cc1)[C@@H](C)O)[C@@H](C)O)[C@@H](C)CC)[C@@H](C)CC)C(=O)N[C@@H](CCC(=O)O)C(=O)NCC(=O)NCC(=O)N1CCC[C@H]1C(=O)N[C@@H](CO)C(=O)N[C@@H](CO)C(=O)NCC(=O)N[C@@H](C)C(=O)N1CCC[C@H]1C(=O)N1CCC[C@H]1C(=O)N1CCC[C@H]1C(=O)N[C@@H](CO)C(N)=O [Example 177] (H-Y[Aib]EGT[αMePhe(2-F)]TSDHSI[αMeL]LDEK([AEEA-AEEA-γGlu-C18 diacid])AQ[Aib]HFI[dE]YLIEGGPSSGAPPPS-NH2) | 6.79 | 1.4
4 | CC[C@H](C)[C@H](NC(=O)[C@H](CC(C)C)NC(=O)[C@H](Cc1ccc(O)cc1)NC(=O)[C@@H](CCC(=O)O)NC(=O)[C@@H](NC(=O)[C@H](Cc1ccccc1)NC(=O)[C@H](CCC(=O)O)NC(=O)C(C)(C)NC(=O)[C@H](CCC(N)=O)NC(=O)[C@H](C)NC(=O)[C@H](CCCCNC(=O)COCCOCCNC(=O)COCCOCCNC(=O)CC[C@H](NC(=O)CCCCCCCCCCCCCCCCCCC(=O)O)C(=O)O)NC(=O)[C@H](CCC(=O)O)NC(=O)[C@H](CC(=O)O)NC(=O)[C@H](CC(C)C)NC(=O)[C@](C)(CC(C)C)NC(=O)[C@@H](NC(=O)[C@H](CO)NC(=O)[C@H](CCC(N)=O)NC(=O)[C@H](CC(=O)O)NC(=O)[C@H](CO)NC(=O)[C@@H](NC(=O)[C@](C)(Cc1ccccc1F)NC(=O)[C@@H](NC(=O)CNC(=O)[C@H](CCC(=O)O)NC(=O)C(C)(C)NC(=O)[C@@H](N)Cc1ccc(O)cc1)[C@@H](C)O)[C@@H](C)O)[C@@H](C)CC)[C@@H](C)CC)C(=O)N[C@@H](CCC(=O)O)C(=O)NCC(=O)NCC(=O)N1CCC[C@H]1C(=O)N[C@@H](CO)C(=O)N[C@@H](CO)C(=O)NCC(=O)N[C@@H](C)C(=O)N1CCC[C@H]1C(=O)N1CCC[C@H]1C(=O)N1CCC[C@H]1C(=O)N[C@@H](CO)C(N)=O [Example 187] (H-Y[Aib]EGT[αMePhe(2-F)]TSDQSI[αMeL]LDEK([AEEA-AEEA-γGlu-C20 diacid])AQ[Aib]EFI[dE]YLIEGGPSSGAPPPS-NH2) | 0.0577 | 0.0371
5 | CC[C@H](C)[C@H](NC(=O)[C@H](CC(C)C)NC(=O)[C@H](Cc1ccc(O)cc1)NC(=O)C(C)(C)NC(=O)[C@@H](NC(=O)[C@H](Cc1ccccc1)NC(=O)[C@H](CCC(=O)O)NC(=O)C(C)(C)NC(=O)[C@H](CCC(N)=O)NC(=O)[C@H](C)NC(=O)[C@H](CCCCNC(=O)COCCOCCNC(=O)COCCOCCNC(=O)CC[C@H](NC(=O)CCCCCCCCCCCCCCCCCCC(=O)O)C(=O)O)NC(=O)[C@H](CCC(=O)O)NC(=O)[C@H](CC(=O)O)NC(=O)[C@H](CC(C)C)NC(=O)[C@](C)(CC(C)C)NC(=O)[C@@H](NC(=O)[C@H](CO)NC(=O)[C@H](Cc1cccnc1)NC(=O)[C@H](CC(=O)O)NC(=O)[C@H](CO)NC(=O)[C@@H](NC(=O)[C@](C)(Cc1ccccc1F)NC(=O)[C@@H](NC(=O)CNC(=O)[C@H](CCC(=O)O)NC(=O)C(C)(C)NC(=O)[C@@H](N)Cc1ccc(O)cc1)[C@@H](C)O)[C@@H](C)O)[C@@H](C)CC)[C@@H](C)CC)C(=O)N[C@@H](CCC(=O)O)C(=O)NCC(=O)NCC(=O)N1CCC[C@H]1C(=O)N[C@@H](CO)C(=O)N[C@@H](CO)C(=O)NCC(=O)N[C@@H](C)C(=O)N1CCC[C@H]1C(=O)N1CCC[C@H]1C(=O)N1CCC[C@H]1C(=O)N[C@@H](CO)C(N)=O [Example 188] (H-Y[Aib]EGT[αMePhe(2-F)]TSD[3Pal]SI[αMeL]LDEK([AEEA-AEEA-γGlu-C20 diacid])AQ[Aib]EFI[Aib]YLIEGGPSSGAPPPS-NH2) | 0.13 | 0.121
